Measurements taken from the CheMixHub viscosity set.

Experiment: xn = mol fraction of the nth substance listed

CC(=O)O + CC(C)=O
viscosity [mPa·s], 101 kPa
Conditions | 293.15 K | 298.15 K | 303.15 K | 313.15 K
x1 = 0.0996 | – | 0.3496 | – | –
x1 = 0.13 | 0.3909 | – | 0.3546 | 0.3238
x1 = 0.2035 | – | 0.4046 | – | –
x1 = 0.222 | 0.4389 | – | 0.3976 | 0.3607
x1 = 0.302 | 0.4916 | – | 0.4411 | 0.3993
x1 = 0.3025 | – | 0.4636 | – | –
x1 = 0.4025 | 0.5632 | – | 0.5015 | 0.4518
x1 = 0.4049 | – | 0.535 | – | –
x1 = 0.4986 | – | 0.6098 | – | –
x1 = 0.5066 | 0.6549 | – | 0.5766 | 0.5138
x1 = 0.5973 | – | 0.6994 | – | –
x1 = 0.605 | 0.7515 | – | 0.6562 | 0.5817
x1 = 0.6968 | – | 0.8024 | – | –
x1 = 0.6994 | 0.8612 | – | 0.7482 | 0.6564
x1 = 0.8015 | – | 0.9213 | – | –
x1 = 0.805 | 0.9881 | – | 0.8527 | 0.7437
x1 = 0.9011 | 1.103 | – | 0.9472 | 0.8218
x1 = 0.9037 | – | 1.036 | – | –

ClCCl + CC(C)=O
viscosity [mPa·s], 101 kPa
Conditions | x2 = 0.0866 | x2 = 0.186 | x2 = 0.3088 | x2 = 0.3898 | x2 = 0.4934 | x2 = 0.5941 | x2 = 0.6959 | x2 = 0.8096 | x2 = 0.899
293.15 K | 0.439 | 0.436 | 0.423 | 0.412 | 0.4 | 0.388 | 0.374 | 0.358 | 0.339
298.15 K | 0.422 | 0.417 | 0.405 | 0.396 | 0.383 | 0.37 | 0.357 | 0.343 | 0.327

CCC(C)Br (stereo unspecified) + CC(C)CO
viscosity [mPa·s], 101.3 kPa
Conditions | 298.15 K | 313.15 K
x1 = 0.0474 | 2.895 | 1.857
x1 = 0.102 | 2.431 | 1.596
x1 = 0.203 | 1.813 | 1.244
x1 = 0.3032 | 1.407 | 1.007
x1 = 0.4043 | 1.126 | 0.8382
x1 = 0.5066 | 0.9316 | 0.7176
x1 = 0.6053 | 0.7983 | 0.6315
x1 = 0.7043 | 0.7016 | 0.5696
x1 = 0.803 | 0.6311 | 0.5215
x1 = 0.8948 | 0.5854 | 0.4887
x1 = 0.9318 | 0.5716 | 0.4796

CCNc1ccccc1 + CC(C)CO
viscosity [mPa·s], 101 kPa
Conditions | 303.15 K | 308.15 K
x1 = 0.0756 | 2.789 | 2.414
x1 = 0.1356 | 2.742 | 2.38
x1 = 0.1958 | 2.695 | 2.348
x1 = 0.2654 | 2.637 | 2.307
x1 = 0.3214 | 2.588 | 2.27
x1 = 0.3956 | 2.517 | 2.215
x1 = 0.4565 | 2.454 | 2.16
x1 = 0.5202 | 2.384 | 2.106
x1 = 0.6021 | 2.284 | 2.029
x1 = 0.6745 | 2.194 | 1.956
x1 = 0.7325 | 2.116 | 1.889
x1 = 0.8025 | 2.019 | 1.811
x1 = 0.8869 | 1.903 | 1.714

CC(=O)O + CC(C)O
viscosity [mPa·s], 101 kPa
Conditions | x1 = 0.00598 | x1 = 0.02919 | x1 = 0.04037 | x1 = 0.0567 | x1 = 0.1073 | x1 = 0.1528 | x1 = 0.1938 | x1 = 0.2308
298.15 K | 2.633 | 2.564 | 2.503 | 2.435 | 2.286 | 2.221 | 2.133 | 2.058
308.15 K | 1.962 | 1.906 | 1.877 | 1.843 | 1.75 | 1.696 | 1.651 | 1.621
318.15 K | 1.521 | 1.491 | 1.474 | 1.454 | 1.4 | 1.363 | 1.33 | 1.306

CCOC=O + CC(C)O
viscosity [mPa·s], 100 kPa
Conditions | x1 = 0.0814 | x1 = 0.1589 | x1 = 0.2351 | x1 = 0.3413 | x1 = 0.4351 | x1 = 0.5587 | x1 = 0.6507 | x1 = 0.7349 | x1 = 0.8498 | x1 = 0.9394
293.15 K | 1.77 | 1.33 | 1.06 | 0.82 | 0.68 | 0.57 | 0.52 | 0.48 | 0.44 | 0.42
298.15 K | 1.53 | 1.18 | 0.95 | 0.76 | 0.64 | 0.54 | 0.49 | 0.46 | 0.42 | 0.4
303.15 K | 1.35 | 1.06 | 0.87 | 0.7 | 0.59 | 0.51 | 0.46 | 0.43 | 0.4 | 0.38
308.15 K | 1.19 | 0.95 | 0.79 | 0.65 | 0.56 | 0.48 | 0.44 | 0.41 | 0.38 | 0.36
313.15 K | 1.05 | 0.85 | 0.71 | 0.59 | 0.52 | 0.45 | 0.41 | 0.39 | 0.36 | 0.34
318.15 K | 0.92 | 0.75 | 0.64 | 0.54 | 0.48 | 0.42 | 0.39 | 0.36 | 0.34 | 0.32
323.15 K | 0.81 | 0.67 | 0.57 | 0.49 | 0.44 | 0.38 | 0.36 | 0.33 | 0.31 | 0.3

ClCCl + CC(C)O
298.15 K, 101 kPa
Conditions | viscosity [mPa·s]
x2 = 0.05 | 0.425
x2 = 0.0992 | 0.435
x2 = 0.1 | 0.433
x2 = 0.15 | 0.444
x2 = 0.2 | 0.458
x2 = 0.2021 | 0.457
x2 = 0.25 | 0.474
x2 = 0.299 | 0.491
x2 = 0.3 | 0.494
x2 = 0.35 | 0.518
x2 = 0.3974 | 0.548
x2 = 0.4 | 0.547
x2 = 0.45 | 0.583
x2 = 0.5 | 0.626
x2 = 0.55 | 0.679
x2 = 0.552 | 0.68
x2 = 0.5957 | 0.74
x2 = 0.6 | 0.744
x2 = 0.65 | 0.823
x2 = 0.6514 | 0.825
x2 = 0.7 | 0.917
x2 = 0.75 | 1.031
x2 = 0.8 | 1.167
x2 = 0.8003 | 1.16
x2 = 0.85 | 1.327
x2 = 0.8515 | 1.321
x2 = 0.897 | 1.515
x2 = 0.9 | 1.516
x2 = 0.924 | 1.619
x2 = 0.9482 | 1.742
x2 = 0.95 | 1.738
x2 = 0.975 | 1.912

CCCCCCCCCCCCCCCC(=O)O + CC(C)[C@@H]1CC[C@@H](C)C[C@H]1O
100 kPa, x1 = 0.15
Conditions | viscosity [mPa·s]
313.15 K | 15.25
318.15 K | 11.78
323.15 K | 9.29
